ChEMBL document CHEMBL5058644, “Data for DCP probe JNJ-39758979” (2022)

What was measured:
[1] = biological target: 5-hydroxytryptamine receptor 5A (Homo sapiens) (UniProt P47898); test: 5-HT5A (h) (5-ht5a) CEREP panel; conditions: Compound concentration 1.0 uM
[2] = biological target: Adrenergic receptor alpha-1 (Homo sapiens) (UniProt P35348+P25100+P35368); test: alpha 1 (non-selective) CEREP panel; conditions: Compound concentration 1.0 uM
[3] = biological target: Glycogen synthase kinase-3 alpha (Homo sapiens) (UniProt P49840); test: GSK3α(h) Millipore kinase panel; conditions: Compound concentration 10.0 uM
[4] = biological target: Nociceptin receptor (Homo sapiens) (UniProt P41146); test: ORL1 (h) CEREP panel; conditions: Compound concentration 1.0 uM
[5] = K+V channel CEREP panel; conditions: Compound concentration 1.0 uM
[6] = biological target: RAF proto-oncogene serine/threonine-protein kinase (Homo sapiens) (UniProt P04049); test: c-RAF(h) Millipore kinase panel; conditions: Compound concentration 10.0 uM
[7] = biological target: 5-hydroxytryptamine receptor 7 (Homo sapiens) (UniProt P34969); test: 5-HT7 (h) CEREP panel; conditions: Compound concentration 1.0 uM
[8] = biological target: 5-hydroxytryptamine receptor 1A (Homo sapiens) (UniProt P08908); test: 5-HT1A (h) CEREP panel; conditions: Compound concentration 1.0 uM
Chain of 5-hydroxytryptamine receptor 1A (Homo sapiens) (P08908 whole entry): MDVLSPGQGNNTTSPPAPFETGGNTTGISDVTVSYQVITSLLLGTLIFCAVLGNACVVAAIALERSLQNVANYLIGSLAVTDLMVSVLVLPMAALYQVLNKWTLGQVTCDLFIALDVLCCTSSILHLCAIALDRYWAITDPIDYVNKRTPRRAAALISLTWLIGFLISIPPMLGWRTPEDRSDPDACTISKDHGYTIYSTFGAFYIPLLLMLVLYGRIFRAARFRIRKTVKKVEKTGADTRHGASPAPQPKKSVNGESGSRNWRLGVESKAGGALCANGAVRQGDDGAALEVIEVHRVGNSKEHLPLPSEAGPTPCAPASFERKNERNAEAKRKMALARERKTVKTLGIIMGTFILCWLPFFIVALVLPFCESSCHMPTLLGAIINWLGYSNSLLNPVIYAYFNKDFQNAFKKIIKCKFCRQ

[9] = biological target: Tyrosine-protein kinase BTK (Homo sapiens) (UniProt Q06187); test: BTK(h) Millipore kinase panel; conditions: Compound concentration 10.0 uM
Chain of Tyrosine-protein kinase BTK (Homo sapiens) (Q06187 whole entry): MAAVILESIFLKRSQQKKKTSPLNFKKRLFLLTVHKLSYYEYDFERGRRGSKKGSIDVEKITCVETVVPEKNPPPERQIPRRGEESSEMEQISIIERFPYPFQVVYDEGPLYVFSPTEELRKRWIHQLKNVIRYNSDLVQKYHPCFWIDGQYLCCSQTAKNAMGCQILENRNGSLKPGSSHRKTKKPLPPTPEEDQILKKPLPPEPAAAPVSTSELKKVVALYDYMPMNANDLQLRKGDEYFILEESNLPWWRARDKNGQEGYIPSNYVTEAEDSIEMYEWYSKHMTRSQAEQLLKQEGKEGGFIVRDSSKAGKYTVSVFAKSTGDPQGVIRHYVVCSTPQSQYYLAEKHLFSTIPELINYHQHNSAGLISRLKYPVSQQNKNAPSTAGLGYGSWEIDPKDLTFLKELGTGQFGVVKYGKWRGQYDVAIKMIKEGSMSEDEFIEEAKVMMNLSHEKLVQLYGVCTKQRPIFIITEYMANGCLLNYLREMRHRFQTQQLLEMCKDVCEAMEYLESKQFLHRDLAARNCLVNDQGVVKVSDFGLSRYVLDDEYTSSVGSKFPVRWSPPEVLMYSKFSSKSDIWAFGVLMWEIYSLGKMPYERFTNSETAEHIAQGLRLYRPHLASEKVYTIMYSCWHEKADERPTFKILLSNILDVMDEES

[10] = biological target: Protein kinase C alpha type (Homo sapiens) (UniProt P17252); test: PKCα(h) Millipore kinase panel; conditions: Compound concentration 10.0 uM
[11] = biological target: 5-hydroxytryptamine receptor 2A (Homo sapiens) (UniProt P28223); test: 5-HT2A (h) CEREP panel; conditions: Compound concentration 1.0 uM
[12] = biological target: Adenosine receptor A1 (Homo sapiens) (UniProt P30542); test: A1 (h) CEREP panel; conditions: Compound concentration 1.0 uM
[13] = biological target: Ephrin type-A receptor 1 (Homo sapiens) (UniProt P21709); test: EphA1(h) Millipore kinase panel; conditions: Compound concentration 10.0 uM
[14] = biological target: Glycogen synthase kinase-3 beta (Homo sapiens) (UniProt P49841); test: GSK3β(h) Millipore kinase panel; conditions: Compound concentration 10.0 uM
[15] = GABA (non-selective) CEREP panel; conditions: Compound concentration 1.0 uM
[16] = biological target: Death-associated protein kinase 1 (Homo sapiens) (UniProt P53355); test: DAPK1(h) Millipore kinase panel; conditions: Compound concentration 10.0 uM
[17] = biological target: Serine/threonine-protein kinase Chk2 (Homo sapiens) (UniProt O96017); test: CHK2(h) Millipore kinase panel; conditions: Compound concentration 10.0 uM
[18] = biological target: Neuropeptide Y receptor type 1 (Homo sapiens) (UniProt P25929); test: Y1 (h) CEREP panel; conditions: Compound concentration 1.0 uM
[19] = biological target: 5-hydroxytryptamine receptor 6 (Homo sapiens) (UniProt P50406); test: 5-HT6 (h) (5-ht6) CEREP panel; conditions: Compound concentration 1.0 uM
[20] = biological target: Cyclin-dependent kinase 2 (Homo sapiens) (UniProt P24941); test: CDK2/cyclinA(h) Millipore kinase panel; conditions: Compound concentration 10.0 uM
[21] = biological target: Cholecystokinin receptor type A (Homo sapiens) (UniProt P32238); test: CCKA (h) (CCK1) CEREP panel; conditions: Compound concentration 1.0 uM
[22] = biological target: Adenosine receptor A2a (Homo sapiens) (UniProt P29274); test: A2A (h) CEREP panel; conditions: Compound concentration 1.0 uM
[23] = biological target: LIM domain kinase 1 (Homo sapiens) (UniProt P53667); test: LIMK1(h) Millipore kinase panel; conditions: Compound concentration 10.0 uM
[24] = biological target: 5-hydroxytryptamine receptor 3A (Homo sapiens) (UniProt P46098); test: 5-HT3 (h) CEREP panel; conditions: Compound concentration 1.0 uM
[25] = biological target: RAC-alpha serine/threonine-protein kinase (Homo sapiens) (UniProt P31749); test: PKBα(h) Millipore kinase panel; conditions: Compound concentration 10.0 uM
[26] = sst (non-selective) CEREP panel; conditions: Compound concentration 1.0 uM
[27] = biological target: Mitogen-activated protein kinase kinase kinase 9 (Homo sapiens) (UniProt P80192); test: MLK1(h) Millipore kinase panel; conditions: Compound concentration 10.0 uM
[28] = biological target: Delta-type opioid receptor (Homo sapiens) (UniProt P41143); test: delta (h) CEREP panel; conditions: Compound concentration 1.0 uM
[29] = biological target: Beta-1 adrenergic receptor (Homo sapiens) (UniProt P08588); test: beta 1 (h) CEREP panel; conditions: Compound concentration 1.0 uM
[30] = biological target: C-X-C chemokine receptor type 2 (Homo sapiens) (UniProt P25025); test: IL-8B (h) (CXCR2) CEREP panel; conditions: Compound concentration 1.0 uM
[31] = biological target: Neurotensin receptor type 1 (Homo sapiens) (UniProt P30989); test: NT1 (h) (NTS1) CEREP panel; conditions: Compound concentration 1.0 uM
Chain of Neurotensin receptor type 1 (Homo sapiens) (P30989 whole entry): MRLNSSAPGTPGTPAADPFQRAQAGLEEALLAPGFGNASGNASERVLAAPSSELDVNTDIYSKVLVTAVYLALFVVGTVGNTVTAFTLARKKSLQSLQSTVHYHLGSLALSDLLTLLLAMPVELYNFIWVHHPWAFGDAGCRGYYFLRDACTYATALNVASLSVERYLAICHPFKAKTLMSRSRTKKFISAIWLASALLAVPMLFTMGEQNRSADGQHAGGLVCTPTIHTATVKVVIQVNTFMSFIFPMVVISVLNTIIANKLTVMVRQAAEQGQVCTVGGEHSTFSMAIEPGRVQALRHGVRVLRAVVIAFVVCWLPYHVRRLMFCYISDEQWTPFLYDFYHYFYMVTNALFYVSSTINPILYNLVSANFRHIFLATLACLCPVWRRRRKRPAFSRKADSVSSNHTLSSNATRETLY

[32] = biological target: Epidermal growth factor receptor (Homo sapiens) (UniProt P00533); test: EGFR(h) Millipore kinase panel; conditions: Compound concentration 10.0 uM
Chain of Epidermal growth factor receptor (Homo sapiens) (P00533 whole entry): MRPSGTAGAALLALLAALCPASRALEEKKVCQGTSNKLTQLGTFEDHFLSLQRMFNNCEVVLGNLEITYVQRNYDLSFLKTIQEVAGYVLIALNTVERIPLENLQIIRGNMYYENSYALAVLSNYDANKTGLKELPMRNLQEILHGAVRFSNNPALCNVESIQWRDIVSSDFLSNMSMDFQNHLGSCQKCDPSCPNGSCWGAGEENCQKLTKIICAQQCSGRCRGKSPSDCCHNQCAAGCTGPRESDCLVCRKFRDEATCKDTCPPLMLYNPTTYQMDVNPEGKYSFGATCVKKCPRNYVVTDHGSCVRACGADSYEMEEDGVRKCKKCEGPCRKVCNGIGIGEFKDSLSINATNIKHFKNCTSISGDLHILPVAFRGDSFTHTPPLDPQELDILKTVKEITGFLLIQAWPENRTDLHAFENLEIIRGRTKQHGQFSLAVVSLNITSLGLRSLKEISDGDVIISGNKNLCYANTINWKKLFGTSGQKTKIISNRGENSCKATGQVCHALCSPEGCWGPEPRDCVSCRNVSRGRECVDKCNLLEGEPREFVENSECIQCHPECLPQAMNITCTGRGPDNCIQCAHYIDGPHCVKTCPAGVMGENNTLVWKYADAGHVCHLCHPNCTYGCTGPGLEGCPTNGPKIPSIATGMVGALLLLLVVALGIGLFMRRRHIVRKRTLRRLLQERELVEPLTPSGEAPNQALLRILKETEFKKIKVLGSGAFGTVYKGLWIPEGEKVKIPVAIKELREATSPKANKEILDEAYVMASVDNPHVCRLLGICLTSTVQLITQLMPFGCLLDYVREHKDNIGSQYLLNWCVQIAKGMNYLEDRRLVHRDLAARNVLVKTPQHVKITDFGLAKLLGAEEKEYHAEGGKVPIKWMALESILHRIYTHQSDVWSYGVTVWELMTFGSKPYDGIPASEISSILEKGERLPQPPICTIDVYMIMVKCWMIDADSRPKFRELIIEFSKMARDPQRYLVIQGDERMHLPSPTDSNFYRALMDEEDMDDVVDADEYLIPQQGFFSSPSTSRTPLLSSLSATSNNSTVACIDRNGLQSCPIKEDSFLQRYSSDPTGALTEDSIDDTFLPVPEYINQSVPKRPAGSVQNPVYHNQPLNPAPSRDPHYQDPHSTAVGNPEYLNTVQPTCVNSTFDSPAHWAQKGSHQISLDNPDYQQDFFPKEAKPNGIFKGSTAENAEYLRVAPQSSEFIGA

[33] = biological target: Testis-specific serine/threonine-protein kinase 1 (Homo sapiens) (UniProt Q9BXA7); test: TSSK1(h) Millipore kinase panel; conditions: Compound concentration 10.0 uM
Chain of Testis-specific serine/threonine-protein kinase 1 (Homo sapiens) (Q9BXA7 whole entry): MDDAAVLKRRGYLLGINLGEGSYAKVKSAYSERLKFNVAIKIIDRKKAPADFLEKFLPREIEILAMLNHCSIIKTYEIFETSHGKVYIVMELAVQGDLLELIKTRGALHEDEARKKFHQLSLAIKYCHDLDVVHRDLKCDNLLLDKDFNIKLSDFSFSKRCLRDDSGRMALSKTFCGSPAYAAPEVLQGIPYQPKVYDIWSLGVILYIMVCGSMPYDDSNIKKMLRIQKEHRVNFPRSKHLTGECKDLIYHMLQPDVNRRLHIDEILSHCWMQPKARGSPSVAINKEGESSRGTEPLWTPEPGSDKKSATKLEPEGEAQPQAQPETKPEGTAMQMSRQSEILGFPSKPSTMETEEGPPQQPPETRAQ

[34] = Cl- channel CEREP panel; conditions: Compound concentration 1.0 uM
[35] = species: Rattus norvegicus; test: AMPK(r) Millipore kinase panel; conditions: Compound concentration 10.0 uM
[36] = biological target: Discoidin domain-containing receptor 2 (Homo sapiens) (UniProt Q16832); test: DDR2(h) Millipore kinase panel; conditions: Compound concentration 10.0 uM
[37] = biological target: Muscarinic acetylcholine receptor M2 (Homo sapiens) (UniProt P08172); test: M2 (h) CEREP panel; conditions: Compound concentration 1.0 uM
[38] = biological target: Proto-oncogene tyrosine-protein kinase Src (Homo sapiens) (UniProt P12931); test: cSRC(h) Millipore kinase panel; conditions: Compound concentration 10.0 uM
[39] = biological target: Muscarinic acetylcholine receptor M1 (Homo sapiens) (UniProt P11229); test: M1 (h) CEREP panel; conditions: Compound concentration 1.0 uM
Chain of Muscarinic acetylcholine receptor M1 (Homo sapiens) (P11229 whole entry): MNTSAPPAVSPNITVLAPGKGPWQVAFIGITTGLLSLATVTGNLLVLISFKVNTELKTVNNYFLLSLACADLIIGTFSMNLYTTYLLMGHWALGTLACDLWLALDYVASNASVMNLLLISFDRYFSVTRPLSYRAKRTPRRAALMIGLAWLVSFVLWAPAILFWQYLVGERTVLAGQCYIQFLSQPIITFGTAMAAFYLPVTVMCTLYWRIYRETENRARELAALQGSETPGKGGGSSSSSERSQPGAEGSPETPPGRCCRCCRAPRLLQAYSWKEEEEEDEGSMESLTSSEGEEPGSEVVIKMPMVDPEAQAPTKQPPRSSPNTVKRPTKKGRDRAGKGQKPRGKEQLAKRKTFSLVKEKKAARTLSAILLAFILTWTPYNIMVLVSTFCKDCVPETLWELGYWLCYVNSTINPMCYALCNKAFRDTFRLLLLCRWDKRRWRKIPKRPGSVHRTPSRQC

[40] = biological target: Serine/threonine-protein kinase 33 (Homo sapiens) (UniProt Q9BYT3); test: STK33(h) Millipore kinase panel; conditions: Compound concentration 10.0 uM
[41] = Na+ channel (site 2) CEREP panel; conditions: Compound concentration 1.0 uM
[42] = biological target: Mitogen-activated protein kinase 8 (Homo sapiens) (UniProt P45983); test: JNK1α1(h) Millipore kinase panel; conditions: Compound concentration 10.0 uM
Chain of Mitogen-activated protein kinase 8 (Homo sapiens) (P45983 whole entry): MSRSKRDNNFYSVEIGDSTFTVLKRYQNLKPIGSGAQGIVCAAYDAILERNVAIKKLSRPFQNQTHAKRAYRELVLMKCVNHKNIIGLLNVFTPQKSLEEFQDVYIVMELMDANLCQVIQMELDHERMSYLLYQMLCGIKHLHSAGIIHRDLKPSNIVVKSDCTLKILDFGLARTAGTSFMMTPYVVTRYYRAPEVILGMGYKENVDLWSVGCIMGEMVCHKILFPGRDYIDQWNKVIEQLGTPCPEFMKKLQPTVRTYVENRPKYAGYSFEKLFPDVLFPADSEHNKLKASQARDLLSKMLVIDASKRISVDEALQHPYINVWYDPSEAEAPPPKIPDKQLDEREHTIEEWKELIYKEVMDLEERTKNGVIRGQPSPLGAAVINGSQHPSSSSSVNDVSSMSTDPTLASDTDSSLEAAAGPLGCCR

[43] = biological target: Adrenergic receptor alpha-2 (Homo sapiens) (UniProt P08913+P18825+P18089); test: alpha 2 (non-selective) CEREP panel; conditions: Compound concentration 1.0 uM
[44] = biological target: Muscle, skeletal receptor tyrosine-protein kinase (Homo sapiens) (UniProt O15146); test: MuSK(h) Millipore kinase panel; conditions: Compound concentration 10.0 uM
[45] = biological target: Endothelin-1 receptor (Homo sapiens) (UniProt P25101); test: ETA (h) CEREP panel; conditions: Compound concentration 1.0 uM

Measured: inhibition

Chain of 5-hydroxytryptamine receptor 5A (Homo sapiens) (P47898 whole entry): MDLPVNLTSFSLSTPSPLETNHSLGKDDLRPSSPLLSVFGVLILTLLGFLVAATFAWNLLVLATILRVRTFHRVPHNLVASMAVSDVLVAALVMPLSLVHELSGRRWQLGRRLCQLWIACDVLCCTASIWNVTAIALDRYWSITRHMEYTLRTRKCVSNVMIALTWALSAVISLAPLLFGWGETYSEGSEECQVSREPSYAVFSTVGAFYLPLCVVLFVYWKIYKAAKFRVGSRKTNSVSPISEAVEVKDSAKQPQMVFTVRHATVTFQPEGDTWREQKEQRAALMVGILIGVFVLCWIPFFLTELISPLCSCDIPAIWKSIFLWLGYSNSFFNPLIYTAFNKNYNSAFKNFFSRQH

CC(C)c1cc(N2CC[C@@H](N)C2)nc(N)n1
inactive: [1] < 10% | [2] < 10% | [3] 8% | [4] < 10% | [5] < 10% | [6] -5% | [7] < 10% | [8] < 10% | [9] -9% | [10] 23% | [11] < 10% | [12] < 10% | [13] -6% | [14] 0% | [15] < 10% | [16] -3% | [17] 4% | [18] < 10% | [19] < 10% | [20] -3% | [21] < 10% | [22] < 10% | [23] -10% | [24] < 10% | [25] -7% | [26] < 10% | [27] 6% | [28] < 10% | [29] < 10% | [30] < 10% | [31] < 10% | [32] 2% | [33] 16% | [34] < 10% | [35] 1% | [36] -8% | [37] < 10% | [38] -5% | [39] 19% | [40] -4% | [41] < 10% | [42] 10% | [43] 18% | [44] -9% | [45] 15%
